Laboratory results as given in patent publication US20220362330A1, “Compositions and Methods for Increasing Epithelial Barrier Function” (The Board of Trustees of the Leland Stanford Junior …, priority 2019, published 2022).

Tests used:
[1] = test system: HSV-1; assay: Genital HSV-1 GFP infection, virus replication in vaginal epithelium; type: in vivo, mice; details: 1.5 ug/30 uL ivag 24 h prior to 3×10^3 PFU HSV-1 GFP; tissue 24 h after infection
Protocol: Estrus-stage or DMPA-treated mice were intravaginally administered vehicle or recombinant mouse Fc-EFNA3 at 1.5 ug/30 uL 24 h prior to genital infection with 3×10^3 PFU HSV-1q GFP (fluorescent virus). Vaginal tissue was recovered 24 h after infection and evaluated for HSV-1 replication in the vaginal epithelium using confocal microscopy. […] To evaluate if treatment with rm-EphrinA3 protects mice from lethal HSV-2 infection, DMPA-treated mice were intravaginally administered Fc- or His-tagged versions of the rm-protein prior to infection. […] Because the microarray data indicated EphrinA1, EphrinA2, EphrinA3, EphrinA4, and EphrinA5 were upstream regulators of Dsg1 and Dsc1 expression in the mouse vagina, we hypothesized that capacity of EphrinA3 to increase cell-cell adhesion molecule expression may be shared by other members of the EphrinA family.

[2] = test system: DSG1 protein; assay: DSG1 protein levels in vaginal tissue, immunofluorescent staining and confocal microscopy; type: in vivo, mice; details: progestin-treated mice vs mice in estrus
Protocol: Excised mouse vaginas were formaldehyde fixed and paraffin embedded (FFPE), and 10 μm sections mounted on glass slides and de-paraffinized by sequential immersion in 100% xylene, 100% ethanol, 96% ethanol, and sterile DEPC-treated water. Antigen retrieval was performed using 10 mM sodium citrate buffer (pH 6.0) containing 0.05% Tween 20 (both Sigma-Aldrich) (20 minutes at 95° C.). After 3 PBS washes, sections were incubated overnight in 10% normal goat serum (Abcam, Cambridge Mass.) at 4° C., then incubated for 1 h at ambient temperate with rabbit anti-desmoglein-1 (clone EPR6766(B)) antibody, washed and incubated for 1 h with AlexaFluor® 488-labeled goat anti-rabbit IgG (antibodies from Abcam) (all antibodies were diluted in PBS with 1% BSA and 0.05% Tween 20). Sections were stained with DAPI and evaluated for levels of DSG1 protein (defined by calculating pixel numbers per 100 μm^2) using confocal microscopy and ImageJ software.

[3] = test system: desmocollin-1 (DSC1); assay: qRT-PCR of Dsc1 gene expression in vaginal tissue; type: in vivo, mice; details: progestin-treated mice vs mice in estrus
Protocol: To define progestin-mediated changes in mucosal permeability, vaginal tissue from mice in estrus, diestrus, or after DMPA or LNG treatment was used to measure expression of the desmosomal cadherins desmoglein-1a (DSG1a) and desmocollin-1 (DSC1).
Human ectocervical and murine vaginal tissues were immediately immersed in 1 mL of RNAlater® (Qiagen), stored for 24 h at 4° C., and stored long-term at −80° C. RNA isolated using the RNeasy Lipid Tissue Kit (Qiagen) using manufacturer's instructions was re-suspended in nuclease-free water and quantified using a NanoDrop spectrophotometer (Thermo Scientific). The following mouse primers were utilized: desmocollin 1 (Mm00496525_ml), desmoglein-1α (Mm00809994_s1), ephrinA3 (Mm01212723_g1) and pyruvate carboxylase (Mm00500992_ml) as housekeeping reference gene (all from Thermo Scientific). These human primers were used: desmoglein-1 (Hs00355084_m1) and glucose-6-phosphate isomerase (Hs00976711_m1) as a housekeeping reference gene. To define relative gene expression, 100 ng of RNA was mixed with TaqMan® RNA-to-Ct™ 1-Step Kit and adequate primer (final volume of 10 μL/well) using manufacturer's instructions (Life Technologies). qRT-PCR was performed using a Quantstudio3 Thermal Cycler, and data analyzed via Quanstudio Software (Applied Biosystems).

[4] = test system: vaginal microbiota / pro-inflammatory mediators; assay: Bacteria and inflammation in genital mucosa; type: in vivo, mice
Excerpt: While prior clinical studies identified increased inflammation in the genital tracts of women using DMPA, the underlying mechanism for this effect had been undefined. Because DMPA increased genital mucosal permeability, it was posited DMPA increases inflammation by promoting entry of the vaginal microbiota into mucosal tissue.

[5] = test system: genital mucosal barrier; assay: Murine tissue permeability assay, low molecular weight fluorescent molecules given intravaginally; type: in vivo, mice; details: germ-free mice
[6] = test system: upstream regulators EFNA3 and ROCK2; assay: Genome-wide gene expression and pathway analysis of vaginal tissue; type: in vivo; details: DMPA-treated vs estrus-stage mice
Protocol: The above results established changes that occur in genital mucosa of women initiating DMPA are recapitulated in DMPA-treated mice, and these that changes include lower expression of the cell-cell adhesion molecule DSG1 and increased genital mucosal permeability. To investigate mechanisms for DMPA-mediated downregulation of DSG1, genome-wide gene expression studies were performed with vaginal tissue from estrus-stage mice (i.e., mice resistant to genital HSV infection) and DMPA-treated mice (i.e., mice highly susceptible to this virus). […] EFNA molecules are involved in pathways that induce DSG1 expression and regulate epithelial cell responses and formation of intercellular adhesion complexes, and Eph receptors stimulate ROCK2-mediated actinomyosin contractility that increases keratinocyte differentiation via DSG1 upregulation. These gene expression analyses thus identified a potential mechanism by which progestins alter E-regulated expression of EFNA3 and ROCK2 and levels of DSG1. As EFNA3, DSG1, and ROCK2 are basally expressed in human genital epithelium, capacity of this E-regulated pathway to promote genital mucosal integrity in mice may also extend to results seen in the human female genital tract.

[7] = test system: genital mucosal permeability; assay: Human tissue permeability assay on biopsy specimens; design: species or system women
Protocol: To confirm the relevance of the mouse model findings, DMPA-mediated changes in mucosal permeability was explored with ectocervical biopsies from women using no hormonal contraceptive and again 1 month after they initiated DMPA.
[…] biopsy specimens obtained from women were placed in transport media, transferred into sterile 96-well plates, and incubated 45 minutes in a 20 μL solution of PBS containing LY and DR (at the same concentrations used in mouse studies). Tissue was likewise fixed and embedded as detailed for mice. Stratified squamous epithelium, lamina propria, and connective tissue were identified using light microscopy (at 100× magnification), while images obtained at 400× magnification were used to quantify penetration of LY into ectocervical tissue.

[8] = DMPA-treated vs. estrus-stage mice

## CC(=O)O[C@]1(C(C)=O)CC[C@H]2[C@@H]3C[C@H](C)C4=CC(=O)CC[C@]4(C)[C@H]3CC[C@@]21C [DMPA]
[1]
  Foci of virus replication observed in vaginal epithelium: observed
[2]
  DSG1a protein expression in vaginal tissue: significantly reduced
[3]
  DSC1 gene expression in vaginal tissue: decrease gene expression levels
[4]; [8]
  Gram-negative bacteria in the mucosa: more Gram-negative bacteria
  levels of pro-inflammatory mediators in the mucosa: higher levels of pro-inflammatory mediators
[4]; germ-free mice
  inflammation: not inflammation
[5]
  permeability: increased permeability
[6]
  effect on signaling pathways (pathway analysis): inhibition of signaling pathways that involve ephrin-A3 (EFNA3) and ROCK2
[6]; upstream regulator EFNA3
  Expr Log Ratio: −2.593
[7]; specimens collected after initiating hormonal contraceptive
  mucosal permeability: increased mucosal permeability
[7]; women
  correlation between serum DMPA levels and genital mucosal permeability: strong positive correlation
